Measurements published in patent US20080242649A1, “New Combination 665” (priority 2007, published 2008).

Experiments:
Details in all cases: compound and its salts
[1] = molecular target: T1, recombinant human Dopamine Subtype D2s receptors (Homo sapiens, UniProt P14416); test: Dopamine D2 [3H]-spiperone binding
T1 construct: purchased Perkin Elmer
Experimental: (§1) Membranes containing recombinant human Dopamine Subtype D2s receptors were obtained from Perkin Elmer. These were diluted in Assay Buffer (50 mM HEPES, 1 mM EDTA, 120 mM NaCl, 0.1% gelatin, pH 7.4) to provide a final concentration of membranes that gave a clear window between maximum and minimum specific binding.
Assays were performed in U-bottomed 96-well polypropylene plates. 30 PL [^3H]-spiperone (0.16 nM final concentration) and 30 μL of Compound A (10× final concentration) were added to each test well. For each assay plate 8 replicates were obtained for [^3H]-spiperone binding in the presence of 30 PL vehicle (10% (v/v) DMSO in Assay Buffer; defining maximum binding) or 30 μL Haloperidol (10 PM final concentration; defining non-specific binding (NSB)). Membranes were then added to achieve a final volume of 300 μL. […] Five washes with 250 μL wash buffer (50 mM HEPES, 1 mM EDTA, 120 mM NaCl, pH 7.4) were performed at 4° C. to remove unbound radioactivity. […] The plates were sealed (TopSeal A) and filter-bound radioactivity was measured with a scintillation counter (TopCount, Packard BioScience) using a 3-minute counting protocol.
(§2) Total specific binding (B0) was determined by subtracting the mean NSB from the mean maximum binding. […]

[2] = molecular target: T2, recombinant human α1D receptor (Homo sapiens, UniProt P25100); test: Adrenergic α1D [3H]-prazosin binding, HEK293 membranes
T2 construct: expressed in transfected cells; host or cells: HEK293 cells (membranes)
T2 sequence (P25100 1-572): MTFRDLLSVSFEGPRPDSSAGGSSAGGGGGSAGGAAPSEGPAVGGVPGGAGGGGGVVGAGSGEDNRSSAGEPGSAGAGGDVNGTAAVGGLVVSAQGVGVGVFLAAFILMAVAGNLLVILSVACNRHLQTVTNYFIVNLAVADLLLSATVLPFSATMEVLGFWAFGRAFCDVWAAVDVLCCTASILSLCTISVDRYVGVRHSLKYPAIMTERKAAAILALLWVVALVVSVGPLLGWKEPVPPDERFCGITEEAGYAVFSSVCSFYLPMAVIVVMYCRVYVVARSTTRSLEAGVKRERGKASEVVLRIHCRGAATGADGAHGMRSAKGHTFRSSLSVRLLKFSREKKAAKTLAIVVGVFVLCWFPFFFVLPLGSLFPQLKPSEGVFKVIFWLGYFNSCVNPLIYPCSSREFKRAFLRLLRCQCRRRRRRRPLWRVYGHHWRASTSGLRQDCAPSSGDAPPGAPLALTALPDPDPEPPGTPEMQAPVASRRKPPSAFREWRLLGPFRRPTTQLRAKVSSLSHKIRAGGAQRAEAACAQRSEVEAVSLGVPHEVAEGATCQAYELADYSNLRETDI
Experimental: Membranes were prepared from human embryonic kidney 293 (HEK293) cells expressing recombinant human α1D receptor. These were diluted in Assay Buffer (50 mM HEPES, 1 mM EDTA, 0.1% gelatin, pH 7.4) to provide a final concentration of membranes that gave a clear window between maximum and minimum specific binding.
(§3) Assays were performed in U-bottomed 96-well polypropylene plates. 10 μL [^3H]-prazosin (0.3 nM final concentration) and 10 μL of Compound A (10× final concentration) were added to each test well. For each assay plate 8 replicates were obtained for [^3H]-prazosin binding in the presence of 10 μL vehicle (10% (v/v) DMSO in Assay Buffer; defining maximum binding) or 10 μL BMY7378 (10 μM final concentration; defining non-specific binding (NSB)). Membranes were then added to achieve a final volume of 100 μL. […] Five washes with 250 μL wash buffer (50 mM HEPES, 1 mM EDTA, pH 7.4) were performed at 4° C. to remove unbound radioactivity. […] The plates were sealed (TopSeal A) and filter-bound radioactivity was measured with a scintillation counter (TopCount, Packard BioScience) using a 3-minute counting protocol.
as §2

[3] = molecular target: T3, recombinant human adrenergic beta 1 receptors (Homo sapiens, UniProt P08588); test: Adrenergic β1 [125I]-Iodocyanopindolol binding
T3 construct: purchased Euroscreen
T3 sequence (P08588 whole entry): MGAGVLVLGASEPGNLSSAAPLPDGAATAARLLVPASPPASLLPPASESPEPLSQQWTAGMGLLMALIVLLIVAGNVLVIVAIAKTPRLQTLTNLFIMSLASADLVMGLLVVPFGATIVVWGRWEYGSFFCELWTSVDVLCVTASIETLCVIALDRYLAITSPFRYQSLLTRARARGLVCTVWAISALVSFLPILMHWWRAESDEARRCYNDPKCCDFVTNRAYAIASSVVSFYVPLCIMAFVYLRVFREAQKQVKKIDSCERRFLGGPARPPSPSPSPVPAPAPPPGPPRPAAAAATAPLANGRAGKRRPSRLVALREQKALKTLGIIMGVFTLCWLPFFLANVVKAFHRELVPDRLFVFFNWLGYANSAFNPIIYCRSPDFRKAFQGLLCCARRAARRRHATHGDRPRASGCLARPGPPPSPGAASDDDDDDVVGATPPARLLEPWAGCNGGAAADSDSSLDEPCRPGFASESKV
Experimental: as §1, with “adrenergic beta 1” for “Dopamine Subtype D2s”, “Euroscreen.” for “Perkin Elmer.”
as §3, with “PL [1251]-Iodocyanopindolol (0.036” for “μL [^3H]-prazosin (0.3”, “[^125]-Iodocyanopindolol” for “[^3H]-prazosin”, “Propranolol” for “BMY7378”, “EDTA, 120 mM NaCl,” for “EDTA,”
as §2

T1 sequence (P14416 1-414 isoform P14416-2): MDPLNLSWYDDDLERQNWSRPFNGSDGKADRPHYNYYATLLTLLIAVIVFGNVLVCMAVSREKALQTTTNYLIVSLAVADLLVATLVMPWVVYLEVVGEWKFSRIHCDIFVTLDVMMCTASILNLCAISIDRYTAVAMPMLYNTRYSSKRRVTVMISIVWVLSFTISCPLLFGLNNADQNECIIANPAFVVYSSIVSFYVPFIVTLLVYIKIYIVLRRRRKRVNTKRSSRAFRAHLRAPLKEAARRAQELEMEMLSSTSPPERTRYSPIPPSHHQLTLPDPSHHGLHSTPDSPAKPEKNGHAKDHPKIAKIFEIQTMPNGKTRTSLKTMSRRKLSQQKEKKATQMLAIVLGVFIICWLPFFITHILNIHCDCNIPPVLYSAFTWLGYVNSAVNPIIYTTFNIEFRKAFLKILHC

CCN(CC)CCN(CCNCCc1ccc(O)c2[nH]c(=O)sc12)C(=O)CCOCCc1cccc2ccccc12 [N-[2-(Diethylamino)ethyl]-N-(2-{[2-(4-hydroxy-2-oxo-2,3-dihydro-1,3-benzothiazol-7-yl)ethyl]amino}ethyl)-3-[2-(1-naphthyl)ethoxy]propanamide]
≥ 10 fold: selectivity of β2 adrenoceptor agonism over dopamine D2 [1] | selectivity of β2 adrenoceptor agonism over adrenergic α1D [2] | selectivity of β2 adrenoceptor agonism over adrenergic β1 [3]
